The record followed here is patent US20190000760A1, “NANOPARTICLE-AQUEOUS DISPERSION LIQUID OF GLYCOSPHINGOLIPID” (REGiMMUNE Corporation, priority 2015, published 2019).

The structures appear in SMILES notation.

The data set can be described thus: Average particle size and particle distribution by dynamic light scattering (Zetasizer Nano ZS). Type of data set: physicochemical. The conditions noted are these: for average particle size / particle distribution: DMSO as organic solvent. The procedure: (§1) KRN7000 was weighed in a test tube, 99.5% ethanol was added to adjust the concentration to 4 mg/mL, and the mixture was then heated to 76° C. to completely dissolve the KRN7000, so that a glycosphingolipid solution was obtained (the same applies for RCAI-56 or RCAI-61). On the other hand, inulin was weighed in a test tube, sterilized distilled water was added to adjust the concentration to 35 mg/mL, and the inulin was then completely dissolved to obtain an inulin solution. 50 μL of the glycosphingolipid solution was transferred to an additionally provided test tube, 950 μL of the inulin solution was added thereto, and quickly mixed by vortex, the mixture was left standing overnight at room temperature, and an equal amount of pure water was then added to reduce the concentration to ½. For the obtained dispersion solution, the average particle size and particle distribution were measured by a dynamic light scattering method (Zetasizer Nano ZS, Malvern). […] The final components of the glycosphingolipid hydrophilic protective colloidal solution obtained by this method, and the concentrations thereof are as follows: 0.1 mg/mL of glycosphingolipid, 17.5 mg/mL of inulin and 2.5% of ethanol.
as §1, with “pullulan” for “inulin”, “10” for “35”, “a pullulan” for “an inulin”, “glycosphingolipid” for “glycosphingolipid hydrophilic”, “5.0” for “17.5”
as §1, with “HPMC” for “inulin”, “1” for “35”, “a HPMC” for “an inulin”, “glycosphingolipid” for “glycosphingolipid hydrophilic”, “0.5” for “17.5”
Preparation of a hydrophobic colloidal solution of a glycosphingolipid using DMSO as an organic solvent was examined. KRN7000 was weighed in a test tube, DMSO was added to adjust the concentration to 2 mg/mL, and the mixture was heated to 85° C. to completely dissolve the KRN7000, so that a glycosphingolipid solution was obtained. […]

Where [1] appears, read: Protective colloid: HPMC, 0.1 mg/mL glycosphingolipid, 0.5 mg/mL HPMC, 2.5% ethanol.
The mark [2] stands for this setting: Protective colloid: Inulin, 0.1 mg/mL glycosphingolipid, 17.5 mg/mL inulin, 2.5% ethanol.
[3] abbreviates: Protective colloid: None, glycosphingolipid dissolved in ethanol, mixed with water.
Setting [4] is: Protective colloid: Pullulan, 0.1 mg/mL glycosphingolipid, 5.0 mg/mL pullulan, 2.5% ethanol.
Setting [5] is: inulin, 0.4 mg/mL glycosphingolipid, 28 mg/mL inulin, 20% DMSO.

In the case of `CCCCCCCCCCCCCCCCCCCCCCCCCC(=O)N[C@@H](CO[C@H]1CC(CO)[C@H](O)[C@H](O)C1O)[C@H](O)[C@H](O)CCCCCCCCCCCCCC` (stereo partly shown) [RCAI-56], the “Average particle size (diameter, nm)” value by setting is: under setting [1], 380 nm; under setting [2], 169 nm; under setting [3], 435 nm; under setting [4], 174 nm. Also, the Particle size distribution entry runs as follows: under setting [1], “Monodispersed”; under setting [2], “Monodispersed”; under setting [3], “Polydispersed”; under setting [4], “Monodispersed”.

`CCCCCCCCCCCCCCCCCCCCCCCCCC(=O)N[C@@H](CO[C@H]1O[C@H](CO)[C@H](O)[C@H](O)[C@H]1O)[C@H](O)[C@H](O)CCCCCCCCCCCCCC` [KRN7000, (2S,3S,4R)-1-O-(α-D-galactosyl)-N-hexacosanoyl-2-amino-1,3,4-octadecanetriol]: the average particle size is given as 345.5 nm under setting [5] and “large average particle size” (protective colloid not used). Moreover, the particle distribution entry is recorded as “monodispersed particles” under setting [5] and “polydispersed particles” (protective colloid not used). Besides, the “Average particle size (diameter, nm)” value is, setting by setting: under setting [1], 192 nm; under setting [2], 156 nm; under setting [3], 1536 nm; under setting [4], 149 nm. Further, the Particle size distribution entry runs as follows: under setting [1], “Monodispersed”; under setting [2], “Monodispersed”; under setting [3], “Polydispersed”; under setting [4], “Monodispersed”.

In the case of `CCCCCCCCCCCCCCCCCCCCCCCCCC(=O)N[C@@H](CO[C@H]1O[C@H](COC)[C@H](O)[C@H](O)[C@H]1O)[C@H](O)[C@H](O)CCCCCCCCCCCCCC` [RCAI-61], the “Average particle size (diameter, nm)” value by setting is: under setting [1], 191 nm; under setting [2], 298 nm; under setting [3], 683 nm; under setting [4], 151 nm. Moreover, the Particle size distribution result by setting is: under setting [1], “Monodispersed”; under setting [2], “Monodispersed”; under setting [3], “Polydispersed”; under setting [4], “Monodispersed”.
